This is an account of results in patent US20040092890A1, “Catheter lock solution including a photo-oxidant” (priority 2003, published 2004).

The subject of data set [1] is Enterobacter Faecalis. As to the kind of experiment: Effect of methylene blue on concentration of a gram positive organism without light exposure (FIG. 3). Type of data set: cell-based. The method, then:
FIG. 3 is a representation of the effect of methylene blue (12 mg/100 ml) on concentration of a gram positive organism, Enterobacter Faecalis, without light exposure.
(§1) In a series of tests, with a gram negative and a gram positive organism, methylene blue inactivated all bacteria within 1 day, while heparin and a 4% concentration of citrate caused no effect on gram positive organisms (FIGS. 2, 3). Methylene blue also advantageously colors the lock solution blue, which provides a useful tool to medical personnel in preventing confusion between the lock solution and any other solution that might be present in a syringe or the catheter.
FIG. 3 is a representation of the effect of methylene blue (12 mg/100 ml) on concentration of a gram positive organism, Enterobacter Faecalis, without light exposure. […] It is expected that illumination will augment bacterial killing by methylene blue even more.

A short description of data set [2]: Relative density of citrate solutions (FIG. 6). The data set is classed as physicochemical.
Source text: It is of course understood that the densities of citrate solutions increase as the concentrations of citrate therein increase.
The densities of various formulations of various catheter lock solutions are directly related to the citrate concentration, as reflected in the linear graph set forth in FIG. 6.
Data set [3] concerns gram negative bacteria. The following applies: large numbers of bacteria; cited from earlier work.
In data set [4] the test system is Escherichia Coli. Put plainly: Effect of methylene blue on concentration of a gram negative organism without light exposure (FIG. 2). Type of data set: cell-based. The method, then:
FIG. 2 is a graph depicting the effect of methylene blue (12 mg/100 ml) on concentration of a gram negative organism, Escherichia Coli, without light exposure.
as §1
FIG. 2 is a representation of the effect of methylene blue (12 mg/100 ml) on concentration of a gram negative organism, Escherichia Coli, without light exposure. […] It is expected that illumination will augment bacterial killing by methylene blue even more.

Data set [5] deals with gram-negative organisms. As to the kind of experiment: Killing of gram-negative organisms by methylene blue 0.01%. The following applies: methylene blue 0.01% (10 mg/100 mL).
The mark [6] stands for this setting: methylene blue 12 mg/100 ml, without light exposure.

Some results are limits rather than exact numbers.

As to `O=C(O)CC(O)(CC(=O)O)C(=O)O` [citrate], in data set [1] (4% concentration of citrate), the “Effect on gram positive organisms” value is reported as “no effect”. The Relative density in data set [2] (23% citrate) is on record as 1.120; in data set [2] (citrate concentration of 0.24M) it was “about 1.045”. The “Time until all gram negative bacteria are killed” value in data set [3] was 1 to 7 days.

In the case of `CN(C)c1ccc2nc3ccc(=[N+](C)C)cc-3sc2c1` [methylene blue], the “Time to inactivate all bacteria” value in data set [4] (gram negative organism) and in data set [1] (gram positive organism) was at most 1 days each time. The “Killing of E. Coli” value in data set [4] (setting [6]) is “All E. Coli are killed within one day”. Besides, in data set [1] (setting [6]), the “Killing of Enterobacter Faecalis” value is given as “All Enterobacter are killed within one day”. In data set [5], the “Killing of gram-negative organisms” value was “kill gram-negative organisms within one day”.

Turning to heparin, the “Effect on gram positive organisms” value in data set [1] (heparin) was “no effect”.
